Values joined by “and” are separate entries in the source; they are usually repeats but may differ in a detail not shown here. Identical values can stand only once. Like-named read-outs stand apart in the source and are kept apart here.
Assays:
[1] = pH of organic amine stabilizers (Table 1, mostly determined experimentally); assay type: physicochemical; conditions: pH in water, some from the literature
From the text: The fluid also comprises an organic amine stabilizing agent that has a first pKa or a pH in water of at least about 9.5. The organic amine preferably has from 1-20 carbon atoms, more preferably 1-10 carbon atoms. In one particularly preferred embodiment, the organic amine has the formula: […]
Table 1 below lists a number of organic amines that can be used as stabilizers in the present invention. The pKa values in the table are from the literature; the pH values in the table were mostly determined experimentally, although some were taken from the literature.

[2] = cited from earlier work
[3] = Viscosity retention of CMHPG linear gels after aging at 325° F. (Example 1, Table 2); assay type: physicochemical; conditions: TEPA 5 gpt, no secondary additive
Protocol: Aqueous polymer solutions were aged in an air oven at elevated temperatures, and their viscosity was measured before and after the aging. […] The base gels were made in 1 liter quantities, and stored in Nalgene-type plastic bottles. The viscosity of each batch of base gel was measured at 70° F. on a Contraves LS-30 viscometer to establish the baseline for that batch.

[4] = Typical pH of fracturing fluid with TEPA as the stabilizer; assay type: physicochemical; conditions: TEPA used as the stabilizer
From the text: where R1 is C1 -C4 alkyl and n is from 1-6. Preferably R1 is ethylene and n is 4. This preferred amine, tetraethylenepentamine (TEPA), is available from Dow Chemical.

| SMILES | pH [1] | pKa [2] | also measured |
| --- | --- | --- | --- |
| CC(COCCCN)COCCCN [DPA-12, di-(gamma-aminopropylether) of 2-methyl-1,3-propane diol] | 11.41 |  |  |
| NCCN(CCN)CCN [TAA, tris-(2-aminoethyl)amine] | 11.25 |  |  |
| NCCCOCCCCOCCCN [NDPA-12, di-(gamma-aminopropylether) of 1,4-butane diol] | 11.55 |  |  |
| CCCCN [n-butylamine] |  | 10.8 |  |
| NCCCCN [tetramethylenediamine] |  | 10.7 |  |
| CCCCCCCCCCCCN [DDA, dodecylamine] | 10.22 |  |  |
| NCCNCCN [diethylenetriamine] | 11.42 |  |  |
| CCN(O)CC [DHA, N,N-diethylhydroxylamine] | 11.06 |  |  |
| NCCCOCCOCCCN [NDPA-10, di-(gamma-aminopropylether) of ethylene glycol] | 11.58 |  |  |
| NCCCN [1,3-diaminopropane] |  | 10.9 | pKa ([2]; second value): 9.0 |
| CC(N)CN (stereo not drawn) [1,2-diaminopropane] |  | 9.8 | pKa ([2]; second value): 6.6 |
| CCCCCCCCCCN [n-decylamine] |  | 10.6 |  |
| NCCCCCCN [hexamethylenediamine] |  | 11.9 |  |
| NCCN [ethylenediamine] |  | 10.7 | pKa ([2]; second value): 7.6 |
| NCCNCCNCCNCCN [tetraethylenepentamine] | 11.29 |  | % of initial viscosity after 2 hrs. ([3]; 325° F.): 93% and 63%; pH (Comments) [3]: 11.50; pH of the fluid [4]: about 10.8 |
| NCCCCN [1,4-diaminobutane] |  | 11.2 | pKa ([2]; second value): 9.7 |
| NCCCNCCNCCCN [BAPED, N,N'-bis(3-aminopropyl)ethylene-diamine] | 11.72 |  |  |
